Laboratory results reported in ChEMBL document CHEMBL6177973, “A Novel Compound 3a-M1, from Metabolites of Sinomenine Derivative 3a, Exerts Potent Anti-Aplastic Anemia Activity via IP3R/ORAI-Mediated CTL Ferroptosis” (J Med Chem, 2025).
The source made the active and inactive calls. No cut-off for these calls is given here.

Tests used:
[1] = Drug metabolism in mouse thymus assessed as (4bR,9S)-1-(hydroxymethyl)-3,7-dimethoxy-11-methyl-6-oxo-6,8a,9,10-tetrahydro-5H-9,4b-(epiminoethano)phenanthren-4-yl cinnamate metabolite formation at 50 mg/kg, po measured for 0.083 to 8 hrs by HPLC analysis; type: ADME, organism-based; conditions: in vivo, time 0.083-8 hrs
[2] = Stability in mouse liver assessed as compound remaining at 50 mg/kg, po measured for 0.083 to 8 hrs by HPLC analysis; type: ADME, organism-based; conditions: in vivo, time 0.083-8 hrs
[3] = Stability in mouse plasma at 37 degreeC; type: ADME, cell-free
[4] = Stability in mouse thymus assessed as compound remaining at 50 mg/kg, po measured for 0.083 to 8 hrs by HPLC analysis; type: ADME, organism-based; conditions: in vivo, time 0.083-8 hrs
[5] = Drug metabolism in rat plasma assessed as hydrolyzation/hydroxylation-mediated metabolite formation at 50 mg/kg, po measured for 24 hrs by HRMS analysis; type: ADME, organism-based; conditions: in vivo
[6] = Stability in mouse blood assessed as compound remaining at 50 mg/kg, po measured for 0.083 to 8 hrs by HPLC analysis; type: ADME, organism-based; conditions: in vivo, time 0.083-8 hrs
[7] = Drug metabolism in rat plasma assessed as cinnamic acid metabolite formation at 50 mg/kg, po measured for 24 hrs by HRMS analysis; type: ADME, organism-based; conditions: in vivo
[8] = Drug metabolism in rat plasma assessed as cinnamic acid metabolite formation at 50 mg/kg, po measured for 24 hrs by HPLC-UV analysis; type: ADME, organism-based; conditions: in vivo
[9] = Drug metabolism in mouse kidney assessed as cinnamic acid metabolite formation at 50 mg/kg, po measured for 0.083 to 8 hrs by HPLC analysis; type: ADME, organism-based; conditions: in vivo, time 0.083-8 hrs
[10] = Drug metabolism in mouse bone marrow assessed as (4bR,9S)-1-(hydroxymethyl)-3,7-dimethoxy-11-methyl-6-oxo-6,8a,9,10-tetrahydro-5H-9,4b-(epiminoethano)phenanthren-4-yl cinnamate metabolite formation at 50 mg/kg, po measured for 0.083 to 8 hrs by HPLC analysis; type: ADME, organism-based; conditions: in vivo, time 0.083-8 hrs
[11] = tested on: NRK-52E; experiment: Cytotoxicity against rat NRK-52E cells assessed as inhibition of cell viability incubated for 72 hrs by CCK8 assay; type: functional, cell-based
[12] = tested on: CTLL-2; experiment: Induction of ferroptosis in IL-2-stimulated mouse CTLL-2 cells assessed as increase in pERK level at 30 uM incubated for 6 hrs followed by Fer-1 addition measured after 10 hrs by Western blot analysis; type: functional, cell-based; conditions: time 16.0 hrs
[13] = tested on: Mus musculus; experiment: Anti-aplastic anemia activity in C57BL/6J mouse model of immune-mediated bone marrow failure assessed as increase in animal survival at 5 to 15 mg/kg, IG qd treated for 21 days; type: functional, organism-based; conditions: dose 5-15 mg/kg, time 21.0 day
[14] = tested on: Mus musculus; experiment: Anti-aplastic anemia activity in C57BL/6J mouse model of immune-mediated bone marrow failure assessed as decrease in histopathological change in bone marrow treated intragastrically once daily for 21 days by H and E staining based analysis; type: functional, organism-based; conditions: dose 5-15 mg/kg, route ig, time 21.0 day
[15] = tested on: Mus musculus; experiment: Anti-aplastic anemia activity in C57BL/6J mouse model of immune-mediated bone marrow failure assessed as increase in dietary intake at 5 to 15 mg/kg, IG qd treated for 21 days; type: functional, organism-based; conditions: dose 5-15 mg/kg, time 21.0 day
[16] = tested on: Mus musculus; experiment: Anti-aplastic anemia activity in C57BL/6J mouse model of immune-mediated bone marrow failure assessed as restoration of naive CD8+ T cells at 5 to 15 mg/kg, IG qd treated for 12 days by flow cytometry; type: functional, organism-based; conditions: dose 5-15 mg/kg, time 12.0 day
[17] = tested on: CTLL-2; experiment: Induction of ferroptosis in mouse CTLL-2 cells assessed as increase in extracellular Ca2+ influx at 10 uM incubated for 24 hrs in presence of EDTA by Fluo-4 AM dye based analysis; type: functional, cell-based
[18] = tested on: CTLL-2; experiment: Induction of ferroptosis in mouse CTLL-2 cells assessed as increase in ROS level incubated for 16 hrs by DCFH-DA staining based flow cytometry; type: functional, cell-based; conditions: dose 7.5-30 µM
[19] = tested on: Mus musculus; experiment: Anti-aplastic anemia activity in C57BL/6J mouse model of immune-mediated bone marrow failure assessed as reduction in cytotoxic T lymphocytes accumulation at 5 to 15 mg/kg, IG qd treated for 12 days; type: functional, organism-based; conditions: dose 5-15 mg/kg, time 12.0 day
[20] = tested on: Mus musculus; experiment: Anti-aplastic anemia activity in C57BL/6J mouse model of immune-mediated bone marrow failure assessed as CD4+ T cells at 10 mg/kg, IG qd treated for 12 days by flow cytometry (reference value: 12.93 %); type: functional; conditions: time 12 day
[21] = tested on: CTLL-2; experiment: Induction of ferroptosis in mouse CTLL-2 cells assessed as increase in pMEK level at 7.5 to 30 uM incubated for 16 hrs by Western blot analysis; type: functional, cell-based; conditions: dose 7.5-30 µM
[22] = Acute toxicity in 12 hr-fasted KM mouse assessed as abnormalities in animal at 10 g/kg, po administered as single dose measured for 14 days; type: organism-based; conditions: in vivo, 10000 mg/kg, 336 h, time 14 day
[23] = tested on: CTLL-2; experiment: Induction of ferroptosis in mouse CTLL-2 cells assessed as increase in pERK level at 7.5 to 30 uM incubated for 16 hrs by Western blot analysis; type: functional, cell-based; conditions: dose 7.5-30 µM
[24] = tested on: IEC-6; experiment: Cytotoxicity against rat IEC-6 cells assessed as inhibition of cell viability incubated for 72 hrs by CCK8 assay; type: functional, cell-based; conditions: IEC-6, 72 h
[25] = tested on: IEC-6; experiment: Induction of ferroptosis in rat IEC-6 cells assessed as increase in intracellular Ca2+ concentration at 10 uM by Fluo-4 AM dye based analysis; type: functional, cell-based
[26] = tested on: CD8-positive T cell; experiment: Inhibition of CD3/CD28-activated CD8-positive T cell activation in BALB/c mouse lymph nodes assessed as decrease in lactate production at 1 to 10 uM incubated for 72 hrs; type: functional, tissue-based; conditions: Lymph node, dose 1-10 µM
[27] = tested on: CD8-positive T cell; experiment: Inhibition of CD3/CD28-activated CD8-positive T cell activation in BALB/c mouse lymph nodes assessed as decrease in TNF-alpha level at 1 to 10 uM incubated for 72 hrs by ELISA; type: functional, tissue-based; conditions: Lymph node, dose 1-10 µM
[28] = tested on: Mus musculus; experiment: Anti-aplastic anemia activity in C57BL/6J mouse model of immune-mediated bone marrow failure assessed as CD8+ T cells at 5 mg/kg, IG qd treated for 12 days by flow cytometry (reference value: 72.15 %); type: functional; conditions: time 12 day
[29] = tested on: CTLL-2; experiment: Induction of ferroptosis in mouse CTLL-2 cells assessed as increase in intracellular Ca2+ concentration incubated for 24 hrs by Fluo-4 AM dye based analysis; type: functional, cell-based
[30] = tested on: Mus musculus; experiment: Anti-aplastic anemia activity in C57BL/6J mouse model of immune-mediated bone marrow failure assessed as CD8+ T cells at 15 mg/kg, IG qd treated for 12 days by flow cytometry (reference value: 72.15 %); type: functional; conditions: time 12 day
[31] = Acute toxicity in 12 hr-fasted KM mouse assessed as animal survival at 10 g/kg, po administered as single dose measured for 14 days; type: organism-based; conditions: in vivo, 10000 mg/kg, 336 h, time 14 day
[32] = tested on: CTLL-2; experiment: Induction of ferroptosis in mouse CTLL-2 cells assessed as increase in p-p38 level at 7.5 to 30 uM incubated for 16 hrs by Western blot analysis; type: functional, cell-based; conditions: dose 7.5-30 µM
[33] = tested on: CTLL-2; experiment: Induction of ferroptosis in mouse CTLL-2 cells assessed as increase in intracellular Ca2+ concentration in presence of 2-APB/CM4620 by Fluo-4 AM dye based analysis; type: functional, cell-based

COC1=C[C@@H]2[C@@H]3Cc4c(COC(=O)/C=C/c5ccccc5)cc(OC)c(OC(=O)/C=C/c5ccccc5)c4[C@]2(CCN3C)CC1=O
Drug metabolism [1]: metabolite_detected
Stability [2]: Unstable
Stability [3]: Unstable
Stability [4]: Unstable
Drug metabolism [5]: metabolite_detected
Stability [6]: Unstable
Drug metabolism [7]: metabolite_notdetected
Drug metabolism [8]: metabolite_detected
Drug metabolism [9]: metabolite_detected
Drug metabolism [10]: metabolite_detected

COC1=C[C@@H]2[C@@H]3Cc4c(CO)cc(OC)c(OC(=O)/C=C/c5ccccc5)c4[C@]2(CCN3C)CC1=O
IC50 [11]: 705 µM
Activity [12]: inactive
Activity [13]: Active; Improvement Observed During Early Stages Of Bone Marrow Failure
Activity [14]: Dose-dependent-effect
Activity [15]: Active
Activity [16]: Active; Partial Restoration Of Naive Cd8+ T Cells Was Observed
Activity [17]: Active
Activity [18]: Dose-dependent-effect
Activity [19]: Active
Activity [20]: 21.08%
Activity [21]: Active
Activity [22]: Non-toxic
Activity [23]: Active
IC50 [24]: 84.3 µM
Activity [25]: Not active; Elevation Was Smaller Than In Mouse Ctll-2 Cells
inhibition [26]: Active
inhibition [27]: Active
Activity [28]: 60.82%
Activity [29]: Active
Activity [30]: 35.23%
Activity [31]: Non-toxic
Activity [32]: Active
Activity [33]: inactive
